Reference: patent US20220132854A1, “STABLE LIQUID COMPOSITIONS AND METHODS OF USING THE SAME” (priority 2019, published 2022)

Experiment: Storage stability of liquid compositions, 8 weeks at 40° C., loss by HPLC
Type: physicochemical
Conditions: same inert ingredients as Composition #7 of Table 3; aged 8 weeks at 40° C.
Experimental: To test stability, the compositions were sealed in a container and stored for 8 weeks at 40° C. The relative percentage loss of halosulfuron-methyl was calculated using high performance liquid chromatography (HPLC). The samples were extracted with solvents and then analyzed with reverse phase HPLC equipped with UV detector. The response from the detector are peak areas (mAu*s). The peak areas were correlated with percentage active ingredients through a standard calibration curve. The percentage of pesticide was calculated through the calibration curve. Chemically stable compositions are those compositions that had less than 5% (w/w) relative loss of halosulfuron-methyl after 8 weeks of storage at 40° C.
The compositions described herein lose 5% (w/w) or less of the pesticide after storing the liquid composition for 8 weeks at 40° C. in a sealed container. Alternatively, the compositions described herein comprise at least 95% (w/w) of the pesticide after storing the liquid composition for 8 weeks at 40° C. in a sealed container. The percent loss is measured by quantitative chromatography, such as High Performance Liquid Chromatography (HPLC).

COC(=O)c1sccc1S(=O)(=O)NC(=O)Nc1nc(C)nc(OC)n1 [Thifensulfuron-methyl, thifensulfuron-methyl]
relative loss of thifensulfuron-methyl: less than 5 % w/w
